The text below walks through data of US6680199B1, “In vitro activation of mammalian oocytes” (Infigen, Inc., priority 1993, dated 2004).

Marks after values point to notes of the source that are not given here. Where only a bound is given, the exact number is not on record here.

The test system of assay [1] is bovine oocytes matured for 24 hours. Briefly: Parthenogenic development of activated oocytes (initial cleavage, blastocyst, blastocyst cell number). The conditions noted are these: for Development to Blastocyst (± se): after ionomycin 5 μM, day 7-8 of culture; for cell number in resulting parthenote blastocysts, Good / cell number in resulting parthenote blastocysts, Poor: after ionomycin. The assay is classed as cell-based. As to the method:
(§1) The cumulus was removed from matured oocytes by vortexing vigorously in 200 μl or TL-HEPES for 3 min. The denuded oocytes were diluted in 3 changes of TL-HEPES to separate the oocytes from the cumulus cells. Where indicated, the oocytes were exposed to 5 μM ionomycin (5 mM stock in DMSO; Calbiochem, La Jolla, Calif.) in TL-HEPES (1 mg/ml fatty acid free BSA) for 4 min. The oocytes were then diluted into TL-HEPES (30 mg/ml fatty acid BSA) for 5 min followed by dilution into TL-HEPES (1 mg/ml Fraction V BSA). The oocytes were then moved to 50 μl drops of embryonic cell development media (U.S. Pat. No. 5,096,822 to Rosenkrans et al., with or without DMAP (1.9 mM) for the indicated times (39° C., 5% CO2 in air). Embryonic cell development media contained 114.6 mM NaCl, 3.1 mM KCl, 5 mM hemi-calcium lactate, 0.4 mM Na pyruvate, 1 mM glutamine, 3 mg/ml fatty acid free BSA, MEM nonessential amino acids and BME amino acids.
In experiments that determined development potential of the parthenotes, activated oocytes were cultured for 7-8 days in embryonic cell development media. On the date after activation, initial cleavage was determined by visual observation. On day 4 of incubation 5% heat treated fetal calf serum was added to each drop. For some experiments, blastocysts were mounted and fixed in acetic acid:alcohol (1:3) and stained with 1% orcein dissolved in 40% acetic acid to determine cell numbers.
Experiments 2a and 2b determined the effect of time of incubation in DMAP on activation and development. In Experiment 2a, oocytes were incubated in DMAP for 15, 30, 60, 150 and 300 minutes. At the end of the incubation time indicated, oocytes were rinsed in TL-HEPES (1 mg/ml Fraction V BSA) and placed into embryonic cell development medium until 5 hours had elapsed. At 5 hours, a subsample of oocytes was removed and mounted to determine activation. The remaining oocytes were returned to the incubator for 7-8 days. Blastocytes on day 7-8 were rated as good or poor and cell number was determined.
Experiment 2b was similar in design except that oocytes were incubated for 2 hours, 3 hours, 4 hours, or 5 hours in DMAP.

For assay [2] the test system is unchanged. As to the kind of experiment: Parthenogenic activation of in vitro matured bovine oocytes (activation, pronuclear formation). The following applies: for Activation of oocytes, result in words / Chromosome / pronuclear outcome, result in words: Experiment 1, 5 hours of culture, FIG. 1b-1d; for % Activation / % Pronuclear formation: oocytes matured 24 h, ionomycin 5 μM 4 min and/or DMAP for 5 hours, determined after 5 hours of culture. In kind it is cell-based. As to the method:
Bovine oocytes were obtained at an abattoir and transported to the laboratory in saline (30-34° C., transport time 2-6 hr). Oocytes from small follicles (1-6 mm) were aspirated and matured according to the methods described in Sirard et al., 1988. Briefly, oocytes were diluted out of the follicular fluid with 3 dilutions of TL HEPES modified by removing glucose, adding 0.22 mM pyruvate and 1 mg/ml of BSA (Fraction V, Sigma Chemical CO, St. Louis, Mo.).
The oocytes were placed in 50 μl drops of TCM-199 (Earle's Salts; Gibco, Grand Island, N.Y.) supplemented with 10% heat treated fetal calf serum, 0.22 mM pyruvate, 5 μg/ml FSH-P (Scherring-Plough Animal Health Corp., Kenilworth, N.J.) and 1 μ/ml estradiol. Ten oocytes were incubated in a 50 μl drop under paraffin oil for 24 hours at 39° C. in 5% CO2 in air humidified atmosphere.
as §1
Activation was evaluated at times indicated in each experiment. The oocytes were mounted on slides, fixed with acetic acid:alcohol (1:3) and observed with Nomarski optics. Special care was taken in determining if metaphase plates were metaphase II or aberrant metaphase III (Kubiak, 1989). Oocytes that contained a metaphase I or II plate were considered not activated. Oocytes that contained anaphase, telophase or metaphase […] plates or pronuclei were considered to be activated.
Experiment 1 determined the effect of sequential exposure of oocytes to ionomycin and DMAP. One level of ionomycin (5 μM) and DMAP (1.9 mM) was used throughout all studies. The oocytes were cultured for 5 hours after ionomycin incubation with or without DMAP. Control oocytes were cultured in embryonic cell development medium alone. Activation was determined after 5 hours of culture. […]
Experiment 3 was designed to determine the kinetics of activation when oocytes were exposed to ionomycin alone or to ionomycin followed by a 3 hour incubation in DMAP. At the end of the 3 hour incubation, oocytes in DMAP were diluted in TL-HEPES (1 mg/ml Fraction V BSA) and moved to embryonic cell development medium until mounting. A sample of oocytes from both treatments were mounted at 1, 2, 3, 4 and 5 hours after exposure to ionomycin to determine the activation state.
Experiment 4 was designed to determine the time at which DMAP is necessary for parthenogenic activation relative to the exposure to ionomycin. The oocytes were exposed to ionomycin and placed in embryonic cell development medium. At 0, 1, 2, 2.5, 3 and 4 hours after ionomycin exposure, oocytes were placed in embryonic cell development medium+DMAP. At 5 hours post ionomycin exposure, the oocytes were mounted to determine their activation state.

Assay [3] deals with 42-hour oocyte derived nuclear transfer (NT) embryos. As to the kind of experiment: Development of 42-hour oocyte derived nuclear transfer embryos. In kind it is cell-based, bovine. The following applies: 1.9 mM DMAP with room temperature activation (RTC) 2 hours; 140 NTs to culture; 6 to 7 days. The procedure:
Bovine oocytes were obtained and placed in maturation media for approximately 20 hours. The cumulus cells were then stripped off the oocytes according to the previously described procedures.
The oocytes were then enucleated according to Prather et al. and placed in CR1aa maturation medium until 40 hours had elapsed. The oocyte were then placed in CR1aa maturation medium with 1.9 mM DMAP for 2 hours and incubated at room temperature activation (RTC) conditions (about 25° C.).
Following incubation, embryonic cells were transferred into the oocytes and the 2 cells were electrically fused together according to the procedures described in Prather et al., with the exception of the step of waiting until 42 hours to activate via RTC (25° C.) and adding DMAP prior to the time of electrofusion. The fused nuclear transfer embryos were then cultured in maturation medium CR1aa for 6 to 7 days to determine developmental rates to the blastocyst stage.

The subject of assay [4] is 20-hours oocytes derived nuclear transfers. Briefly: Development of 20-hour oocyte derived nuclear transfers (fused after activation). The assay is classed as cell-based, bovine. The conditions noted are these: treatment at 20 hours maturation after enucleation, 4 hours DMAP with or without ionomycin 5 μM 4 min. As to the method:
This experiment was conducted under similar conditions as Experiment 6 with the exception that the oocytes were either placed directly in DMAP (young oocytes) or given in ionomycin (5 μM) treatment for 4 minutes plus DMAP treatment immediately after enucleation, i.e., at 20 hours maturation. At the end of the DMAP treatment, approximately 24 hours, embryonic cells were transferred into the oocytes and electrofusion was induced. The concentration of activating chemicals used were the same as those described in Experiment 6. The embryos were placed in maturation medium CR1aa for 6 to 7 days to determine developmental rates to blastocyst stage.

Where [5] appears, read: Experiment 3, FIG. 2, time after exposure to ionomycin.

As to `CN(C)c1ncnc2nc[nH]c12` [DMAP, 6-dimethylaminopurine], in assay [1] (Experiment 2b, DMAP incubation 0 h (ionomycin alone)), the “Development to Blastocyst (± se)” value was 0^a %. For the same molecule, in assay [1] (6-DMAP 1.9 mM incubation 15 min), the “Development to Blastocyst (± se)” value is reported as 0^a %. In addition, the “Development to Blastocyst (± se)” value in assay [1] (6-DMAP 1.9 mM incubation 30 min) was 0^a %. Besides, the “Development to Blastocyst (± se)” value in assay [1] (6-DMAP incubation 0 min (ionomycin alone)) is recorded as 0^a %. Moreover, in assay [1] (DMAP incubation 2 h), the “cell number in resulting parthenote blastocysts, Good” value (“cell number … Good” below) stood at 88.7. Moreover, in assay [1] (DMAP incubation 3 h), the “cell number … Good” value is listed as 70.1 and the “cell number in resulting parthenote blastocysts, Poor” value (“cell number … Poor” below) amounted to 33.1. Further, in assay [1] (DMAP incubation 4 h), the “cell number … Good” value is reported as 73.6 and the “cell number … Poor” value is given as 40.1. In assay [1] (DMAP incubation 5 h), the “cell number … Good” value was 83.7 and the “cell number … Poor” value is 44. In assay [2], the “Activation of oocytes, result in words” value is listed as “did not activate the oocytes”; the “Chromosome / pronuclear outcome, result in words” value is on record as “caused the chromosomes to form a tight clump in the cytoplasm”; the “% Activation” value is on record as 7.8 ± 5.5^a %; the “% Pronuclear formation” value is on record as 7.8 ± 5.5^a %. The “Effect of interval from ionomycin treatment to exposure to DMAP, result in words” value in assay [2] (Experiment 4, FIG. 3, interval more than 1 hour, mounted 5 hours post ionomycin) is reported as “increase in ability to resume meiosis”. Besides, in assay [3], the “Number Blastocyst” value is given as 40; the “Number Blastocyst, percent” value turned out to be 29%; the “Number Usable Blastocyst” value was 18; the “Number Usable Blastocyst, percent” value is 13%. For the same molecule, in assay [4] (cultured 6 to 7 days), the “% Usable” value stood at 0% and the “Development Rate to Blastocyst” value is listed as 0%. The “Cleavage Rate” value in assay [4] (fused after activation) is reported as 4%.
`C[C@H](CCC(=O)O)C[C@H](C)C[C@H](C)C(=O)/C=C(\O)[C@H](C)C[C@H](C)C/C=C/[C@@H](C)[C@@H](O)[C@@H](C)[C@@H](O)C[C@@H]1CC[C@@](C)([C@H]2CC[C@@](C)([C@@H](C)O)O2)O1` [Ionomycin, ionomycin]: in assay [2], the “Activation of oocytes, result in words” value was “activated the oocytes to a high level”; the “Chromosome / pronuclear outcome, result in words” value is on record as “instead of forming pronuclei the chromosomes reassembled into a metaphase plate”; the “% Activation” value is listed as 57.8 ± 7.8^b %; the “% Pronuclear formation” value is 8.9 ± 7.3^a %. For the same molecule, in assay [2] (setting [5]), the “Time by which oocytes had resumed meiosis” value was no more than 1 h and the “Time by which oocytes were arrested in metaphase III” value lay within 4 to 5 h.
